Measured values published in the supplement of paper PMC11451515.

Tested on: P12-Ichikawa
Test: cell viability relative to DMSO control; higher = less cytotoxic
Conditions: 48 h
Method in brief: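 Library compounds in DMSO were pin-dosed into 1536-well plates (5 μl) holding NOMO1 or SEM (500 cells/well) or P12-Ichikawa (1000 cells/well) leukemia cells, across an 11-point threefold series of 47 μM to 0.79 nM. Each cell line had been adapted for at least four passages in each medium. CellTiter-Glo One luminescence was read after 48 h at 37°C. Viability is the per-plate percentage relative to DMSO wells, with cell-free wells as background.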

[1] = HPLM + 10% dialyzed FBS, 0.000781 µM
[2] = HPLM + 10% dialyzed FBS, 0.00234 µM
[3] = HPLM + 10% dialyzed FBS, 0.00702 µM
[4] = HPLM + 10% dialyzed FBS, 0.0211 µM
[5] = HPLM + 10% dialyzed FBS, 0.0632 µM
[6] = HPLM + 10% dialyzed FBS, 0.19 µM
[7] = HPLM + 10% dialyzed FBS, 0.569 µM
[8] = HPLM + 10% dialyzed FBS, 1.71 µM
[9] = HPLM + 10% dialyzed FBS, 5.12 µM
[10] = HPLM + 10% dialyzed FBS, 15.4 µM
[11] = HPLM + 10% dialyzed FBS, 46.1 µM
[12] = RPMI 5 mM glucose + 10% FBS, 0.000781 µM
[13] = RPMI 5 mM glucose + 10% FBS, 0.00234 µM
[14] = RPMI 5 mM glucose + 10% FBS, 0.00702 µM
[15] = RPMI 5 mM glucose + 10% FBS, 0.0211 µM
[16] = RPMI 5 mM glucose + 10% FBS, 0.0632 µM
[17] = RPMI 5 mM glucose + 10% FBS, 0.19 µM
[18] = RPMI 5 mM glucose + 10% FBS, 0.569 µM
[19] = RPMI 5 mM glucose + 10% FBS, 1.71 µM
[20] = RPMI 5 mM glucose + 10% FBS, 5.12 µM
[21] = RPMI 5 mM glucose + 10% FBS, 15.4 µM
[22] = RPMI 5 mM glucose + 10% FBS, 46.1 µM
[23] = RPMI 5 mM glucose + 10% dialyzed FBS, 0.000781 µM
[24] = RPMI 5 mM glucose + 10% dialyzed FBS, 0.00234 µM
[25] = RPMI 5 mM glucose + 10% dialyzed FBS, 0.00702 µM
[26] = RPMI 5 mM glucose + 10% dialyzed FBS, 0.0211 µM
[27] = RPMI 5 mM glucose + 10% dialyzed FBS, 0.0632 µM
[28] = RPMI 5 mM glucose + 10% dialyzed FBS, 0.19 µM
[29] = RPMI 5 mM glucose + 10% dialyzed FBS, 0.569 µM
[30] = RPMI 5 mM glucose + 10% dialyzed FBS, 1.71 µM
[31] = RPMI 5 mM glucose + 10% dialyzed FBS, 5.12 µM
[32] = RPMI 5 mM glucose + 10% dialyzed FBS, 15.4 µM
[33] = RPMI 5 mM glucose + 10% dialyzed FBS, 46.1 µM

Row | SMILES | cell viability [1] [%] | cell viability [2] [%] | cell viability [3] [%] | cell viability [4] [%] | cell viability [5] [%] | cell viability [6] [%] | cell viability [7] [%] | cell viability [8] [%] | cell viability [9] [%] | cell viability [10] [%] | cell viability [11] [%] | cell viability [12] [%] | cell viability [13] [%] | cell viability [14] [%] | cell viability [15] [%] | cell viability [16] [%] | cell viability [17] [%] | cell viability [18] [%] | cell viability [19] [%] | cell viability [20] [%] | cell viability [21] [%] | cell viability [22] [%] | cell viability [23] [%] | cell viability [24] [%] | cell viability [25] [%] | cell viability [26] [%] | cell viability [27] [%] | cell viability [28] [%] | cell viability [29] [%] | cell viability [30] [%] | cell viability [31] [%] | cell viability [32] [%] | cell viability [33] [%]
1 | C[C@@H](NCc1cc2ccccc2[nH]1)c1cccc2ccccc12 | 88.5 | 88.8 | 93.4 | 93 | 86.8 | 97 | 95.5 | 97.7 | 90 | 93.4 | 90.2 | 89.1 | 90.2 | 87.5 | 95.9 | 92.9 | 91.3 | 94.8 | 88 | 89.8 | 88.8 | 92.2 | 84.1 | 86.6 | 83.2 | 91.4 | 77.3 | 84.7 | 85.5 | 92.6 | 88.5 | 90.7 | 89.5
2 | Cc1ccc(NC(=O)c2cccc(N(C)C)c2)cc1NC(=O)c1ccc(O)cc1 | 120 | 120 | 118 | 116 | 111 | 116 | 119 | 108 | 108 | 108 | 96.7 | 114 | 122 | 120 | 127 | 113 | 111 | 119 | 113 | 113 | 102 | 95.2 |  |  |  |  |  |  |  |  |  |  | 
3 | Cc1cccc(N(C)C(=S)Oc2ccc3ccccc3c2)c1 | 98.1 | 114 | 109 | 109 | 118 | 94.2 | 107 | 109 | 111 | 111 | 109 | 109 | 107 | 111 | 112 | 113 | 116 | 116 | 112 | 107 | 99.6 | 92.4 | 95.1 | 101 | 104 | 108 | 104 | 109 | 106 | 109 | 103 | 104 | 80.4
4 | CC1=CC=C2\N=C/3N(CC[C@@]3(O)C(=O)C2=C1)C4=CC=CC=C4 | 97.2 | 98.3 | 94.9 | 94.6 | 99.3 | 88.8 | 92.1 | 95.3 | 82 | 86.6 | 89.5 | 84.8 | 82.3 | 92 | 90.2 | 92.4 | 89.2 | 89 | 90.2 | 83.8 | 86.7 | 86.9 | 95.4 | 86 | 84.1 | 83.1 | 84.5 | 81.1 | 90 | 82.1 | 81.9 | 76.4 | 78.7
5 | Cn1cnc(-c2cc3nccc(Oc4ccc(NC(=S)NC(=O)Cc5ccccc5)cc4F)c3s2)c1 | 79 | 85.6 | 77.3 | 92.7 | 91.4 | 91.5 | 94.1 | 87.8 | 83.9 | 71.8 | 15.2 | 80.9 | 82.9 | 80.5 | 87.1 | 84.7 | 85.2 | 87.1 | 92.6 | 82.7 | 58.5 | 7.61 | 80.4 | 87.6 | 83.1 | 91.8 | 96.9 | 93.7 | 85.6 | 95.9 | 82.6 | 66.3 | 15.4
6 | C/C(=C\c1csc(C)n1)[C@@H]1C[C@@H]2O[C@@H]2CCC[C@H](C)[C@H](O)[C@@H](C)C(=O)C(C)(C)[C@@H](O)CC(=O)O1 | 37.2 | 25.2 | 25 | 26.8 | 27.1 | 24.6 | 23.9 | 25.2 | 21.1 | 21.5 | 22.6 | 28.8 | 14.8 | 19.1 | 20.3 | 20 | 20.6 | 21.6 | 20.8 | 17.4 | 18.1 | 19.3 | 67.2 | 27.9 | 33.6 | 27.2 | 34.7 | 33.1 | 33.7 | 31.4 | 29.1 | 31.3 | 35.9
7 | COc1cc(NC(=O)c2ccc(-c3ccc(Cl)cc3)o2)cc(OC)c1 | 93.8 | 111 | 110 | 112 | 115 | 109 | 111 | 111 | 101 | 99.2 | 104 | 97.4 | 105 | 100 | 115 | 108 | 115 | 108 | 117 | 101 | 99.5 | 95.5 | 84 | 107 | 114 | 113 | 112 | 107 | 115 | 104 | 101 | 94.3 | 104
